In the NIST ThermoML archive (doi:10.1021/je400622g):

Experiments:
[1] = Liquid; for mass density: 298.15 K, Vibrating tube method
[2] = refractive index (Na D-line) (dimensionless); details: 298.15 K; 101.33 kPa; Liquid; Standard Abbe refractometry
[3] = xn = mol fraction of the nth substance listed; details: 298.15 K, Liquid, Vibrating tube method

CCOC(C)=O [ethyl acetate]
Details | mass density [kg/m3] | refractive index
[1] | 894.5 | –
[2] | – | 1.3698

Details | vapor or sublimation pressure [kPa]
[1], 417.02 K, Ebulliometric method (Recirculating still) | 600

Details | Normal boiling temperature [°C]
[1], Ebulliometric method (Recirculating still) | 77.04

CCOC(C)=O [ethyl acetate] + CCCO
[3]
Details | mass density [kg/m3]
x1 = 0.0442 | 804.5
x1 = 0.0911 | 809.6
x1 = 0.1433 | 815.2
x1 = 0.201 | 821.3
x1 = 0.2417 | 825.5
x1 = 0.2986 | 831.4
x1 = 0.3435 | 835.9
x1 = 0.4654 | 847.6
x1 = 0.5534 | 855.8
x1 = 0.6461 | 864.2
x1 = 0.6917 | 868.2
x1 = 0.7647 | 874.5
x1 = 0.8037 | 877.9
x1 = 0.8347 | 880.5
x1 = 0.8535 | 882.1
x1 = 0.9053 | 886.4
x1 = 0.9649 | 891.4
x1 = 1 | 894.5

COC(C)=O [methyl ethanoate]
Details | vapor or sublimation pressure [kPa]
[1], 393.01 K, Ebulliometric method (Recirculating still) | 600

CCCO [propan-1-ol]
Details | mass density [kg/m3]
[1] | 799.6

Details | vapor or sublimation pressure [kPa]
[1], 427.2 K, Ebulliometric method (Recirculating still) | 600

CCCO [propan-1-ol] + CCCOC(C)=O
Details | mass density [kg/m3]
[3], x2 = 0 | 799.6

CCCO [propan-1-ol] + CCOC(C)=O
Details | mass density [kg/m3]
[3], x2 = 0 | 799.6

CCCOC(C)=O [propyl ethanoate]
Details | mass density [kg/m3]
[1] | 882.4

Details | vapor or sublimation pressure [kPa]
[1], 446.02 K, Ebulliometric method (Recirculating still) | 600

CCCOC(C)=O [propyl ethanoate] + CCCO
[3]
Details | mass density [kg/m3]
x1 = 0.0544 | 805.9
x1 = 0.0997 | 810.9
x1 = 0.1515 | 816.5
x1 = 0.1951 | 821
x1 = 0.2503 | 826.4
x1 = 0.3164 | 832.6
x1 = 0.3481 | 835.4
x1 = 0.4144 | 841.2
x1 = 0.4959 | 847.9
x1 = 0.5463 | 851.8
x1 = 0.6051 | 856.2
x1 = 0.6968 | 862.8
x1 = 0.7528 | 866.6
x1 = 0.7893 | 869
x1 = 0.7984 | 869.7
x1 = 0.8531 | 873.2
x1 = 0.8873 | 875.4
x1 = 0.9521 | 879.4
x1 = 1 | 882.4
